Entries after “also recorded” stand apart in the source; their conditions may differ. Ends that are not written are not given here.
How the values were obtained:
[1] = tested on: peptide-pulsed A24LCL cells; test: IFN-gamma ELISPOT on CTLs induced with HLA-A2402 restricted Foxp3 peptides; assay type: cell-based, human; conditions: FIG. 1A/1B
Source text: (§1) Monocyte-derived dendritic cells (DCs) were used as antigen-presenting cells (APCs) to induce CTL responses against peptides presented on HLA. DCs were generated in vitro as described elsewhere (Horiguchi S. et al. Cancer Res. 59:2950-6). Specifically, peripheral blood mononuclear cells (PBMCs) isolated from normal volunteer (HLA-A*2402 and/or HLA-A*0201) with Ficoll-Plaque (Pharmacia) solution were separated by adherence to plastic tissue culture dish (Becton Dickinson) so as to enrich them for the monocyte fraction. The monocyte-enriched population was cultured in the presence of 1000 U/ml of GM-CSF (R&D System) and 1000 U/ml of IL-4 (R&D System) in AIM-V medium (Invitrogen) containing 2% heat-inactivated autologous serum (AS). After 7 days in the culture, the cytokine-generated DCs were pulsed with 20 mcg/ml of the synthesized peptides in the presence of 3 mcg/ml of beta2-microglobulin for 4 hrs at 20 degrees C. in AIM-V medium. These peptide-pulsed DCs were then inactivated with mitomycin C (MMC) (30 mcg/ml for 30 mins) and mixed at a 1:20 ratio with autologous CD8+ T cells, obtained by positive selection with CD8 Positive Isolation Kit (Dynal). These cultures were set up in 48-well plates (Corning); each well contained 1.5×10^4 peptide-pulsed DCs, 3×10^5 CD8+ T cells and 10 ng/ml of IL-7 (R&D System) in 0.5 ml of AIM-V/2% AS. Three days later, these cultures were supplemented with IL-2 (CHIRON) to a final concentration of 20 IU/ml. On day 7 and 14, the T cells were further restimulated with the peptide-pulsed autologous DCs. The DCs were prepared each time through the same procedure described above. CTL activity was tested against peptide-pulsed A24LCL cells or T2 cells after the 3rd round of peptide stimulation on day 21.
(§2) To examine the specific CTL activity, IFN-gamma ELISPOT assay and IFN-gamma ELISA were performed. Briefly, peptide-pulsed A24-LCL, T2 cell (1×10^4/well) or the cells endogenously expressing Foxp3 and HLA molecule was prepared as a stimulator cells. Cultured CTL lines in 48 wells were used as a responder cells. IFN-gamma ELISPOT assay and IFN-gamma ELISA were performed under manufacture procedure.
CTLs for the peptides derived from Foxp3 protein were generated according to the method described in the “Materials and Methods”, supra.

[2] = tested on: peptide-pulsed A24LCL cells; test: IFN-gamma ELISA on expanded CTL lines, HLA-A24 peptides; assay type: cell-based, human; conditions: expanded cells of positive wells, FIG. 3E, 3G
Procedure: (§3) CTLs were expanded in culture using a similar method as reported by Riddell, et al. (Walter et al., N Engl J Med 333(16): 1038-44, 1995; Riddell et al., Nat Med 2(2): 216-23, 1996 February). A total of 5×10^4 CTLs were resuspended in 25 ml of AIM-V/5% AS with 2 kinds of human B-lymphoblastoid cell lines, inactivated with MMC, in the presence of 40 ng/ml of anti-CD3 monoclonal antibody (Pharmingen). One day after initiating the cultures, 120 IU/ml of IL-2 were added to the cultures. The cultures were fed with fresh AIM-V/5% AS containing 30 IU/ml of IL-2 on days 5, 8 and 11.
as §2
(§4) These cells in the positive wells were expanded and performed IFN-gamma ELISA assay.

[3] = tested on: peptide-pulsed A24LCL cells or T2 cells; test: In vitro CTL induction by peptide-loaded dendritic cells (summary statements); assay type: cell-based, human; conditions: for specific CTL activity: against peptide pulsed target cells; for establishment of CTLs: in vitro stimulation of T-cells by DCs loaded with peptide
Source text: Confirmation of CTL inducibility can be accomplished by inducing antigen-presenting cells carrying human MHC antigens (for example, B-lymphocytes, macrophages, and dendritic cells), or more specifically dendritic cells derived from human peripheral blood mononuclear leukocytes, and after stimulation with the peptides, mixing with CD8-positive cells, and then measuring the IFN-gamma produced and released by CTL against the target cells. As the reaction system, transgenic animals that have been produced to express a human HLA antigen (for example, those described in BenMohamed L, Krishnan R, Longmate J, Auge C, Low L, Primus J, Diamond D J, Hum Immunol 61(8): 764-79, 2000 August, Related Articles, Books, Linkout Induction of CTL response by a minimal epitope vaccine in HLA A*0201/DR1 transgenic mice: dependence on HLA class II restricted T(H) response) can be used. For example, the target cells can be radiolabeled with ^51Cr and such, and cytotoxic activity can be calculated from radioactivity released from the target cells. Alternatively, it can be examined by measuring IFN-gamma produced and released by CTL in the presence of antigen-presenting cells that carry immobilized peptides, and visualizing the inhibition zone on the media using anti-IFN-gamma monoclonal antibodies.
as §1, §2

[4] = tested on: 4T1 breast cancer cells; test: In vivo antitumor effects of vaccination, 4T1 tumor; parameters: species or system BALB/c mice; conditions: 4T1 s.c. day 0, vaccination day 3 and 10, compared with control mice, FIG. 6
Procedure: 1×10^5 4T1 breast cancer cell lines were injected into BALB/c mice on day 0. IFA-conjugated with Foxp3-252_h (-open circle-), Foxp3-252_m (-solid square-), no peptide (-solid triangle-) was injected on day 3 and 10. As control of normal tumor growth, non-vaccinated mice (-x-) were also prepared in this assay.
4T1 cells (1×10^5 per mouse) were injected s.c. into the right flank of BALB/c mice on day 0. Vaccination was done on days 3 and 10 using hFoxp3-252 (KLSAMQAHL: SEQ ID NO: 17) or mFoxp3-252 (KLGAMQAHL: SEQ ID NO: […]) IFA-conjugated peptides.
To examine the antitumor effects with peptide vaccination targeted Foxp3, in vivo therapeutic setting was attempted by using 4T1 tumor cells and BALB/c mice. The 4T1 breast cancer cells were injected s.c. into BALB/c mice on day 0, and then vaccination was done on these mice 3 and 10 days after the tumor challenge.

[5] = tested on: BALB/c mice; test: Immunogenicity of epitope peptides in BALB/c mice (IFN-gamma ELISPOT on splenocytes); assay type: in vivo
Procedure: IFA-conjugated peptide or IFA only were injected s.c. into BALB/c mice on day 0 and 7. On day 14, splenocytes of vaccinated mice were harvested and used as responder cells. 1×10^4 RLmale1 cells pulsed corresponding peptide (solid square), or no peptide (open square) were used as stimulator cells for IFN-gamma ELISPOT assay. Vaccination using Foxp3-252_h (A) and Foxp3-252_m (B) were performed into five mice (M1-M5) and IFA without any peptide injection were performed into three mice (N1-N3) as control in each assay.
For priming the peptide-specific CTLs, immunization was given using 100 mcl vaccine mixture, which contains 50 mcl HLA-A24 restricted peptide and 50 mcl IFA per mouse. The vaccine was injected s.c. into the right flank of mice for the first immunization on day 0 and in the left flank for the second on the day 7. On day 14, splenocytes from vaccinated mice were used as the responder cells, and RLmale1 cells pulsed with or without peptides were used as the stimulator cells for IFN-gamma ELISPOT assay.
To evaluate the immunogenicity of Foxp3-9-252 peptide for BALB/c mice, immunization with human Foxp3-9-252 peptide (Foxp3-252_h; KLSAMQAHL)(SEQ ID NO: 17) and mouse Foxp3-9-252 peptide (Foxp3-252_m; KLGAMQAHL) (SEQ ID NO: 89) were performed, respectively. After second injection of peptide, peptide specific CTL activity was determined by IFN-gamma ELISPOT assay (FIG. 5).

[6] = tested on: peptide-pulsed T2 cells; test: IFN-gamma ELISPOT on CTLs induced with HLA-A0201 restricted Foxp3 peptides; assay type: cell-based, human; conditions: FIG. 2A/2B/2C
Source text: as §1, §2
Resulting CTLs showing detectable specific CTL activity were shown in FIG. 2A, FIG. 2B and FIG. 2C when performed by IFN-gamma ELISPOT assay.

[7] = tested on: 293T that transfected both Foxp3 and HLA-A02; test: Specific CTL activity against target cells expressing Foxp3 and HLA-A02; assay type: cell-based, human
Procedure: as §2
The established CTL clone raised against these peptides were examined for their ability to recognize the target cells endogenously expressing Foxp3 and HLA-A*24 or 02. Specific CTL activity against 293T transfected both full length of Foxp3 gene and HLA-A*24 or 02 molecule, which is specific model for the target cells endogenously express Foxp3 and HLA-A*24 or 02, was tested using the CTL lines raised by Foxp3-A02-9-390 (SEQ ID NO: 15) and Foxp3-A02-9-252 (SEQ ID NO: 17) as effector cells. […] Furthermore, these peptides were epitope peptides, which can utilize vaccine targeting Foxp3 expressed T-regs.

[8] = tested on: peptide-pulsed T2 cells; test: IFN-gamma ELISA on expanded CTL lines, HLA-A02 peptides; assay type: cell-based, human; conditions: expanded cells of positive wells, FIG. 3A-D, 3F
Procedure: as §3, §2, §4

Row | Substance | IFN-gamma production of CTLs stimulated with peptide, compared with the control [1] | IFN-gamma production of CTL lines stimulated with peptide, compared with the control [2] | specific CTL activity [3] | establishment of CTLs [3] | tumor growth / antitumor effect ([4]; listed as Foxp3-252_m) | tumor growth / antitumor effect ([4]; listed as mFoxp3-252) | mice with peptide specific CTL response ([5]; IFA-conjugated peptide s.c. day 0 and 7, splenocytes day 14, RLmale1 stimulator cells, FIG. 5) | induction of epitope specific CTLs in vivo ([5]; vaccination of BALB/c mice, discussion) | IFN-gamma production of CTLs stimulated with peptide, compared with the control [6] | specific CTL activity of CTL lines raised by peptide ([7]; against 293T transfected with both Foxp3 and HLA-A02, FIG. 4A/4B) | specific CTL activity against controls ([7]; controls of FIG. 4A/4B) | IFN-gamma production of CTL lines stimulated with peptide, compared with the control [8]
1 | GPLPhLQALL (GPLPHLQALL; not fully specified (residue 5); printed as GPLPhLQALL) [SEQ ID NO 67] | potent IFN-gamma production | potent IFN-gamma production | significant and specific CTL activity | CTLs were successfully established |  |  |  |  |  |  |  | 
2 | SLNPmPPSQL (chain 1 SLNPMPPSQL; chain 2 SLNPMPPSQL; not fully specified (some residues)) [SEQ ID NO 74] | potent IFN-gamma production | potent IFN-gamma production | significant and specific CTL activity | CTLs were successfully established |  |  |  |  |  |  |  | 
3 | KLGAMQAHL (peptide vaccine) [SEQ ID NO 88, mouse Foxp3-9-252 peptide] |  |  |  |  | tumor growth apparently reduced; also recorded: Significant difference of tumor growth suppression | obviously anti-tumor effects | one of five | could induce epitope specific CTLs in vivo |  |  |  | 
4 | SLHKCFVRV (peptide vaccine) [SEQ ID NO 15] |  |  | significant and specific CTL activity | CTLs were successfully established |  |  |  |  | potent IFN-gamma production | high specific CTL activity | did not show significant specific CTL activity | potent IFN-gamma production
5 | ALLQDRPHFM (peptide vaccine) [SEQ ID NO 27] |  |  | significant and specific CTL activity | CTLs were successfully established |  |  |  |  | potent IFN-gamma production |  |  | potent IFN-gamma production

— US8563516B2, “Foxp3 peptide vaccine” (OncoTherapy Science, Inc., priority 2007, dated 2013)
